# In patent publication US20110306922A1, “LIGHT-EMITTING DEVICES FOR PHOTOTHERAPY” (priority 2010, published 2011):
# Assays:
# [1] = system: CHO-K1 (Chinese Hamster Ovarian Cancer, ATCC, CRL-2243) cell line; assay: cells; settings: Cricetulus griseus, CHO-K1, light or radiation study, read-out: cells destroyed (cell viability, light dosimetry)
# [2] = system: CHO-K1 (Chinese Hamster Ovarian Cancer, ATCC, CRL-2243) cell line
# [3] = system: age-related macular degeneration; assay: Intravenous verteporphin plus red OLED illumination of the retina, age-related macular degeneration; format: in vivo, person; settings: about 6 mg/m^2 i.v.; about 20 mW/cm^2 for about 42 minutes, about 50 J/cm
# Description: (§1) Verteporphin is intravenously injected, over a period of about 10 minutes at a rate of about 3 mL/min, to a person suffering from age-related macular degeneration. The verteporphin (7.5 mL of 2 mg/mL reconstituted solution, available as Visudyne® from Novartis) is diluted with 5% dextrose to a volume of 30 mL using a sufficient quantity of the reconstituted verteporphin so that the total dose injected is about 6 mg/m^2 of body surface.
# The treatment is repeated as needed.
# [4] = system: presumed ocular histoplasmosis; parameters: species or system person; settings: in vivo, iv
# pathological myopia = assay: Intravenous verteporphin plus red OLED illumination of the retina, pathological myopia; format: in vivo, person; settings: about 6 mg/m^2 i.v.; about 20 mW/cm^2 for about 42 minutes, about 50 J/cm2
# Description: as §1, with “minute” for “minutes”, “pathological myopia.” for “age-related macular degeneration.”
# After treatment, the patient's vision is anticipated to be stabilized. The treatment is repeated as needed.
SMILES,cytotoxicity at 1000 µM [1] [%],"generation of PpIX (fluorescence emission at 635 nm) ([2]; ALA 0.5 mM, 1 mM, 2 mM, incubated about 16 hrs at 37° C.)",optical microscope images of the cells: healthy leafy type cells transform to droplet type ([2]; after 25 J/cm^2 red light (630 nm) irradiation from OLED),patient's vision [3],patient's vision [4],patient's vision (pathological myopia)
"NCC(=O)CCC(=O)O [ALA, 5-aminolevulinic acid]",~90,confirmed,significant cell death,–,–,–
C=Cc1c(C)c2cc3nc(cc4[nH]c(cc5nc(cc1[nH]2)C(C)=C5CCC(=O)O)c(CCC(=O)OC)c4C)[C@@]1(C)C3=CC=C(C(=O)OC)[C@H]1C(=O)OC [Verteporphin],–,–,–,stabilized,stabilized,stabilized
